Assay results from BigSolDB 2.1.

## COc1ccc(Cl)cc1C(=O)NCCc1ccc(S(=O)(=O)NC(=O)NC2CCCCC2)cc1
In acetone, 283.15 K
  solubility (mole fraction): 0.000443
In acetone, 288.15 K
  solubility (mole fraction): 0.000559
In acetone, 293.15 K
  solubility (mole fraction): 0.000701
In acetone, 298.15 K
  solubility (mole fraction): 0.00088
In acetone, 303.15 K
  solubility (mole fraction): 0.00112
In acetone, 308.15 K
  solubility (mole fraction): 0.0014
In acetone, 313.15 K
  solubility (mole fraction): 0.00175
In acetone, 318.15 K
  solubility (mole fraction): 0.00219
In acetone, 323.15 K
  solubility (mole fraction): 0.00269
In ethanol, 283.15 K
  solubility (mole fraction): 0.000103
In ethanol, 288.15 K
  solubility (mole fraction): 0.000145
In ethanol, 293.15 K
  solubility (mole fraction): 0.000196
In ethanol, 298.15 K
  solubility (mole fraction): 0.000259
In ethanol, 303.15 K
  solubility (mole fraction): 0.000333
In ethanol, 308.15 K
  solubility (mole fraction): 0.000437
In ethanol, 313.15 K
  solubility (mole fraction): 0.00062
In ethanol, 318.15 K
  solubility (mole fraction): 0.000893
In ethanol, 323.15 K
  solubility (mole fraction): 0.00122
In ethyl acetate, 283.15 K
  solubility (mole fraction): 8.63e-05
In ethyl acetate, 288.15 K
  solubility (mole fraction): 0.000115
In ethyl acetate, 293.15 K
  solubility (mole fraction): 0.000146
In ethyl acetate, 298.15 K
  solubility (mole fraction): 0.000186
In ethyl acetate, 303.15 K
  solubility (mole fraction): 0.000236
In ethyl acetate, 308.15 K
  solubility (mole fraction): 0.000307
In ethyl acetate, 313.15 K
  solubility (mole fraction): 0.000394
In ethyl acetate, 318.15 K
  solubility (mole fraction): 0.000511
In ethyl acetate, 323.15 K
  solubility (mole fraction): 0.000647
In isopropanol, 283.15 K
  solubility (mole fraction): 7.96e-05
In isopropanol, 288.15 K
  solubility (mole fraction): 9.98e-05
In isopropanol, 293.15 K
  solubility (mole fraction): 0.00013
In isopropanol, 298.15 K
  solubility (mole fraction): 0.000176
In isopropanol, 303.15 K
  solubility (mole fraction): 0.000216
In isopropanol, 308.15 K
  solubility (mole fraction): 0.000286
In isopropanol, 313.15 K
  solubility (mole fraction): 0.000422
In isopropanol, 318.15 K
  solubility (mole fraction): 0.000607
In isopropanol, 323.15 K
  solubility (mole fraction): 0.000892
In methanol, 283.15 K
  solubility (mole fraction): 0.000129
In methanol, 288.15 K
  solubility (mole fraction): 0.000172
In methanol, 293.15 K
  solubility (mole fraction): 0.00022
In methanol, 298.15 K
  solubility (mole fraction): 0.0003
In methanol, 303.15 K
  solubility (mole fraction): 0.000378
In methanol, 308.15 K
  solubility (mole fraction): 0.000477
In methanol, 313.15 K
  solubility (mole fraction): 0.00066
In methanol, 318.15 K
  solubility (mole fraction): 0.00103
In methanol, 323.15 K
  solubility (mole fraction): 0.00137
In water, 283.15 K
  solubility (mole fraction): 8.38e-08
In water, 288.15 K
  solubility (mole fraction): 8.83e-08
In water, 293.15 K
  solubility (mole fraction): 1.05e-07
In water, 298.15 K
  solubility (mole fraction): 1.28e-07
In water, 303.15 K
  solubility (mole fraction): 1.64e-07
In water, 308.15 K
  solubility (mole fraction): 2.3e-07
In water, 313.15 K
  solubility (mole fraction): 3.24e-07
In water, 318.15 K
  solubility (mole fraction): 4.54e-07
In water, 323.15 K
  solubility (mole fraction): 7.84e-07
